# According to patent publication US9597407B2, “Targeted antimicrobial moieties” (C3 Jian, Inc., priority 2009, dated 2017):
# “Also recorded” adds a separate entry of the source. Ends that are not written are not given here.
# Legend:
# [1] = system: bacteria; assay: Binding of targeting peptides to microorganisms (Table 3); settings: peptide binding in aqueous buffers varied by peptide solubility; preferably 1x PBS
# [2] = system: microorganisms; assay: Morphology, biofilm and growth disruption by peptides (Table 5); assay type: cell-based; parameters: key: A: Peptide aggregates; B: Less hyphal formation; Clumps; Diffuse clumps and small polyps; F: Diffuse growth; H: Thin; I: Growth inhibition; Microcolony formation; Rippled; Small polyps; Thick; W: Halo formation on top, microlonies on bottom
# Source text: In certain embodiments peptides that induce alterations in phenotype or other biological activities can also be used as antimicrobial effector moieties.
substance,measurement,setting,value
1T-3 (VLGIAGGLDAYGELVGGN; Peptide with targeting and/or antimicrobial activity) [Peptide 1T-3],Target(s) (microorganism bound by the targeting peptide),[1],S. mutans; also recorded: S. gordonii
1T-4 (LDAYGELVGGN; Peptide with targeting and/or antimicrobial activity) [Peptide 1T-4],Target(s) (microorganism bound by the targeting peptide),[1],S. gordonii; also recorded: S. sanguinis; also recorded: S. oxalis; also recorded: V. atypica; also recorded: L. casei; also recorded: S. mutans
1T-6 (KFINGVLSQFVLERK; Peptide with targeting and/or antimicrobial activity) [Peptide 1T-6],Target(s) (microorganism bound by the targeting peptide),[1],S. mutans
1T-7 (SQRIIEPVKSPQPYPGFSVS; Peptide with targeting and/or antimicrobial activity) [Peptide 1T-7],Target(s) (microorganism bound by the targeting peptide),[1],M. xanthus
1T-8 (FSVAACGEQRAVTFVLLIEDLI; Peptide with targeting and/or antimicrobial activity) [Peptide 1T-8],Target(s) (microorganism bound by the targeting peptide),[1],M. xanthus
1T-9 (WAWAESPRCVSTRSNIHALAFRVEVAALT; Peptide with targeting and/or antimicrobial activity) [Peptide 1T-9],Target(s) (microorganism bound by the targeting peptide),[1],M. xanthus
1T-10 (SPAGLPGDGDEA; Peptide with targeting and/or antimicrobial activity) [Peptide 1T-10],Target(s) (microorganism bound by the targeting peptide),[1],M. xanthus
1T-11 (RISE; Peptide with targeting and/or antimicrobial activity) [Peptide 1T-11],Target(s) (microorganism bound by the targeting peptide),[1],S. mutans; also recorded: S. epidermidis; also recorded: P. aeruginosa
1T-12 (FGNIFKGLKDVIETIVKWTAAK; Peptide with targeting and/or antimicrobial activity) [Peptide 1T-12],Target(s) (microorganism bound by the targeting peptide),[1],C. xerosis; also recorded: C. striatum; also recorded: S. epidermidis; also recorded: S. mutans
1T-13 (FRSPCINNNSLQPPGVYPAR; Peptide with targeting and/or antimicrobial activity) [Peptide 1T-13],Target(s) (microorganism bound by the targeting peptide),[1],S. aureus; also recorded: S. epidermidis; also recorded: P. aeruginosa
1T-14 (ALAGLAGLISGK; Peptide with targeting and/or antimicrobial activity) [Peptide 1T-14],Target(s) (microorganism bound by the targeting peptide),[1],S. mutans; also recorded: S. aureus; also recorded: S. epidermidis; also recorded: C. xerosis
1T-15 (DVILRVEAQ; Peptide with targeting and/or antimicrobial activity) [Peptide 1T-15],Target(s) (microorganism bound by the targeting peptide),[1],S. mutans
1T-16 (IDMR; Peptide with targeting and/or antimicrobial activity) [Peptide 1T-16],Target(s) (microorganism bound by the targeting peptide),[1],P. aeruginosa
1T-17 (NNAIVYIS; Peptide with targeting and/or antimicrobial activity) [Peptide 1T-17],Target(s) (microorganism bound by the targeting peptide),[1],S. mutans
1T-18 (YSKTLHFAD; Peptide with targeting and/or antimicrobial activity) [Peptide 1T-18],Target(s) (microorganism bound by the targeting peptide),[1],S. aureus; also recorded: S. epidermidis; also recorded: C. striatum; also recorded: P. aeruginosa
1T-19 (PGAFRNPQMPRG; Peptide with targeting and/or antimicrobial activity) [Peptide 1T-19],Target(s) (microorganism bound by the targeting peptide),[1],S. aureus; also recorded: S. epidermidis; also recorded: P. aeruginosa
1T-20 (PALVDLSNKEAVWAVLDDHS; Peptide with targeting and/or antimicrobial activity) [Peptide 1T-20],Target(s) (microorganism bound by the targeting peptide),[1],S. mutans; also recorded: P. aeruginosa
1T-21 (YVEEAVRAALKKEARISTEDTPVNLPSFDC; Peptide with targeting and/or antimicrobial activity) [Peptide 1T-21],Target(s) (microorganism bound by the targeting peptide),[1],S. mutans; also recorded: P. aeruginosa
1T-22 (VPLDDGTRRPEVARNRDKDRED; Peptide with targeting and/or antimicrobial activity) [Peptide 1T-22],Target(s) (microorganism bound by the targeting peptide),[1],S. epidermidis; also recorded: P. aeruginosa
1T-23 (PALVDLSNKEAVWAVLDDHS; Peptide with targeting and/or antimicrobial activity) [Peptide 1T-23],Target(s) (microorganism bound by the targeting peptide),[1],S. mutans; also recorded: P. aeruginosa
1T-24 (EEAEEKLAEVSQAVKRLVR; Peptide with targeting and/or antimicrobial activity) [Peptide 1T-24],Target(s) (microorganism bound by the targeting peptide),[1],P. aeruginosa
1T-25 (VGLDVSVLVLFFGLQLLSVLLGAMIR; Peptide with targeting and/or antimicrobial activity) [Peptide 1T-25],Target(s) (microorganism bound by the targeting peptide),[1],S. aureus; also recorded: S. epidermidis; also recorded: C. xerosis; also recorded: C. striatum; also recorded: P. aeruginosa
1T-26 (LTILPTTFFAIIVPILAVAFIAYSGFKIKGIVEHKDQW; Peptide with targeting and/or antimicrobial activity) [Peptide 1T-26],Target(s) (microorganism bound by the targeting peptide),[1],S. mutans; also recorded: S. aureus; also recorded: S. epidermidis; also recorded: C. jeikeium; also recorded: C. xerosis; also recorded: C. striatum; also recorded: P. aeruginosa
1T-27 (ALFVSLEQFLVVVAKSVFALCHSGTLS; Peptide with targeting and/or antimicrobial activity) [Peptide 1T-27],Target(s) (microorganism bound by the targeting peptide),[1],S. mutans; also recorded: S. aureus; also recorded: S. epidermidis; also recorded: C. jeikeium; also recorded: C. xerosis; also recorded: C. striatum; also recorded: P. aeruginosa
1T-28 (VSRDEAMEFIDREWTTLQPAGKSHA; Peptide with targeting and/or antimicrobial activity) [Peptide 1T-28],Target(s) (microorganism bound by the targeting peptide),[1],P. aeruginosa
1T-29 (GSVIKKRRKRMSKKKHRKMLRRTRVQRRKLGK; Peptide with targeting and/or antimicrobial activity) [Peptide 1T-29],Target(s) (microorganism bound by the targeting peptide),[1],S. epidermidis; also recorded: C. jeikeium; also recorded: C. xerosis; also recorded: C. striatum; also recorded: P. aeruginosa; also recorded: S. mutans; also recorded: S. aureus
1T-30 (GKAKPYQVRQVLRAVDKLETRRKKGGR; Peptide with targeting and/or antimicrobial activity) [Peptide 1T-30],Target(s) (microorganism bound by the targeting peptide),[1],S. aureus; also recorded: S. epidermidis; also recorded: C. xerosis; also recorded: C. striatum; also recorded: P. aeruginosa
1T-31 (NATGTDIGEVTLTLGRFS; Peptide with targeting and/or antimicrobial activity) [Peptide 1T-31],Target(s) (microorganism bound by the targeting peptide),[1],S. mutans; also recorded: P. aeruginosa
PF-634 (chain 1 MPKARPVNHNKKKSKITIKSNFTLFYMFNP; chain 2 MPKARPVNHNKKKSKITIKSNFTLFYMFNP; Peptide with targeting and/or antimicrobial activity),"Organism, effect (morphology, biofilm and growth disruption)",[2]; E. coli,E. coli (C)
same,"Organism, effect (morphology, biofilm and growth disruption)",[2]; M. luteus,M. luteus (C)
same,"Organism, effect (morphology, biofilm and growth disruption)",[2]; MRSA,MRSA (D)
same,"Organism, effect (morphology, biofilm and growth disruption)",[2]; P. mirabilis,P. mirabilis (C)
same,"Organism, effect (morphology, biofilm and growth disruption)",[2]; S. epidermidis,S. epidermidis (D)
same,"Organism, effect (morphology, biofilm and growth disruption)",[2]; S. mutans,S. mutans (D)
same,"Organism, effect (morphology, biofilm and growth disruption)",[2]; S. pneumoniae,S. pneumoniae (D)
PF-670 (chain 1 TVIVAPMHSGV; chain 2 TVIVAPMHSGV; Peptide with targeting and/or antimicrobial activity),"Organism, effect (morphology, biofilm and growth disruption)",[2]; B. subtilis,B. subtilis (H)
same,"Organism, effect (morphology, biofilm and growth disruption)",[2]; S. pneumoniae,S. pneumoniae (H)
PF-C089 (MPKRHYYKLEAKALQFGLPFAYSPIQLLK; Peptide with targeting and/or antimicrobial activity),"Organism, effect (morphology, biofilm and growth disruption)",[2]; P. gingivalis,P. gingivalis (R)
PF-C214 (GGHKQLVIEPLVSQ; Peptide with targeting and/or antimicrobial activity),"Organism, effect (morphology, biofilm and growth disruption)",[2]; F. nucleatum,F. nucleatum (T)
PF-C293 (IIIILPKIYLVCKTV; Peptide with targeting and/or antimicrobial activity),"Organism, effect (morphology, biofilm and growth disruption)",[2]; F. nucleatum,F. nucleatum (T)
same,"Organism, effect (morphology, biofilm and growth disruption)",[2]; P. gingivalis,P. gingivalis (R)
same,"Organism, effect (morphology, biofilm and growth disruption)",[2]; S. mutans,S. mutans (F)
RRGCTERLRRMARRNAWDLYAEHFY [PF-148],"Organism, effect",[2]; B. subtilis,B. subtilis (I)
same,"Organism, effect",[2]; C. albicans,C. albicans (B)
same,"Organism, effect",[2]; C. jeikeium,C. jeikeium (H)
same,"Organism, effect",[2]; C. jejuni,C. jejuni (H)
same,"Organism, effect",[2]; M. luteus,M. luteus (A)
same,"Organism, effect",[2]; MRSA,MRSA (C)
same,"Organism, effect",[2]; S. epidermidis,S. epidermidis (D)
same,"Organism, effect",[2]; S. pneumoniae,S. pneumoniae (R)
SKFKVLRKIIIKEYKGELMLSIQKQR [PF-530],"Organism, effect (morphology, biofilm and growth disruption)",[2]; E. coli,E. coli (R)
same,"Organism, effect (morphology, biofilm and growth disruption)",[2]; E. faecalis,E. faecalis (C)
same,"Organism, effect (morphology, biofilm and growth disruption)",[2]; MRSA,MRSA (C)
same,"Organism, effect (morphology, biofilm and growth disruption)",[2]; S. epidermidis,S. epidermidis (H)
same,"Organism, effect (morphology, biofilm and growth disruption)",[2]; S. pneumoniae,S. pneumoniae (R)
TKKIELKRFVDAFVKKSYENYILERELKKLIKAINEELPTK [PF-600],"Organism, effect (morphology, biofilm and growth disruption)",[2]; E. coli,E. coli (H)
same,"Organism, effect (morphology, biofilm and growth disruption)",[2]; M. luteus,M. luteus (C)
same,"Organism, effect (morphology, biofilm and growth disruption)",[2]; MRSA,MRSA (M)
same,"Organism, effect (morphology, biofilm and growth disruption)",[2]; S. epidermidis,S. epidermidis (C)
same,"Organism, effect (morphology, biofilm and growth disruption)",[2]; S. mutans,S. mutans (S)
same,"Organism, effect (morphology, biofilm and growth disruption)",[2]; S. pneumoniae,S. pneumoniae (R)
YIQFHLNQQPRPKVKKIKIFL-NH2 [PF-531],"Organism, effect (morphology, biofilm and growth disruption)",[2]; E. coli,E. coli (M)
same,"Organism, effect (morphology, biofilm and growth disruption)",[2]; P. aeruginosa,P. aeruginosa (I)
same,"Organism, effect (morphology, biofilm and growth disruption)",[2]; S. epidermidis,S. epidermidis (I)
same,"Organism, effect (morphology, biofilm and growth disruption)",[2]; S. pneumoniae,S. pneumoniae (C)
